In ChEMBL document CHEMBL1201862, “PubChem BioAssay data set” (2004):
The source made the active and inactive calls.

Columns and labels:
Streptokinase A = biological target: T1, Streptokinase A (Streptococcus pyogenes serotype M1, UniProt P10520); experiment: S. pyogenes streptokinase expression inhibitors, potency, dose response, plasminogen activation absorbance, OD405 (AID 1914); assay type: functional, Streptococcus pyogenes M1 GAS;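 note: secreted streptokinase activity via plasminogen activation per viability signal from cell pellet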
T1 sequence (P10520 whole entry): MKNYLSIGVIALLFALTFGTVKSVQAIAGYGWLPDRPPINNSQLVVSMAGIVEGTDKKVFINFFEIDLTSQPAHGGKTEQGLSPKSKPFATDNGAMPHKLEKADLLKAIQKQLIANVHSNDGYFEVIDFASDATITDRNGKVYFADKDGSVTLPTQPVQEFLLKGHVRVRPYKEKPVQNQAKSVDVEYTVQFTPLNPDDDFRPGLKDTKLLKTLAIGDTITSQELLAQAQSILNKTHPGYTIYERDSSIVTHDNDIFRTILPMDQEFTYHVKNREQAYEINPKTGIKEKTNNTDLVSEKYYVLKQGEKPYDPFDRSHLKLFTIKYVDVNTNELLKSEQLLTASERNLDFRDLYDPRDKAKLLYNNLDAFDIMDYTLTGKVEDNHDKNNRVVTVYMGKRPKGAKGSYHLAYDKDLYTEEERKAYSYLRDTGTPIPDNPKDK

[1] = tested on: Streptococcus sp. 'group A'; experiment: growth inhibition of control SK(-) GAS strain, dose response, counter-screen for streptokinase expression inhibitor project, luminescence, kanamycin, BacTiterGlo, confirmation (AID 1900); assay type: functional, organism-based
Streptococcus = experiment: Group A Streptococcus viability loss, dose response, counter-screen for streptokinase expression inhibitor project, luminescence, BacTiterGlo (AID 1915); assay type: functional, organism-based;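 note: potency for reduction of bacterial viability or growth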
INS1 = experiment: beta cell apoptosis inhibitors, cytokine rescue, dose response, luminescence, retest (AID 449756); assay type: functional, cell-based; details: Rattus norvegicus;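 note: cell death triggered by IL-1 beta plus TNF-alpha plus IFN-gamma mixture; protective hits raise ATP signal compared with cytokine alone wells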
[2] = cytotoxicity toward NIH3T3 fibroblasts, dose response, counter-screen, cell-based, ATP luminescence, mouse fibroblasts (AID 2010); assay type: functional;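 note: cells exposed to compound for about 90 hours before reading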
[3] = inhibitors of intracellular T. cruzi replication, confirmation, NIH3T3 host cells, beta-gal luminescence (AID 2044); assay type: functional, cell-based;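 note: intracellular parasites grown in NIH/3T3 mouse fibroblasts as host cells; luminescent beta-galactosidase reporter signal from transgenic T. cruzi replicating inside host cells; inhibitors lower the luminescence signal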
Cytochrome P450 2D6 = Cytochrome P450 2D6 (Homo sapiens, UniProt P10635);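 note: CYP2D6 member of a cytochrome P450 panel assay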
Sequence of Cytochrome P450 2D6 (P10635 whole entry): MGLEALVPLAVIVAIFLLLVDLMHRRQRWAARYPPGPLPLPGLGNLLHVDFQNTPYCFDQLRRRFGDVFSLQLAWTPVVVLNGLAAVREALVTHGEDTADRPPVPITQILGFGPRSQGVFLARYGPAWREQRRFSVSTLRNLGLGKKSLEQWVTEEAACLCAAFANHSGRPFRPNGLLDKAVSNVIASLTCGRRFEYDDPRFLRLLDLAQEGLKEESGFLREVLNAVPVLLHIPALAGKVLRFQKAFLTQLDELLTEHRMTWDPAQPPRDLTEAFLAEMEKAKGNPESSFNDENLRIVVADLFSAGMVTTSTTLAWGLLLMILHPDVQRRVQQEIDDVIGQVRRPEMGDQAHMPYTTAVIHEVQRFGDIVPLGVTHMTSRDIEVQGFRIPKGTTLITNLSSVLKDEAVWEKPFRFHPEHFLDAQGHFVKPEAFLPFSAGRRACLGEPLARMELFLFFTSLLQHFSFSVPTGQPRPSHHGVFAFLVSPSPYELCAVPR

Cytochrome P450 2C19 = Cytochrome P450 2C19 (Homo sapiens, UniProt P33261); experiment: Cytochrome panel assay with activity outcomes. Panel member name: p450-cyp2c19 Compounds with AC50 equal or less than 10 uM are considered active; assay type: functional; details: read-out: AC50
Sequence of Cytochrome P450 2C19 (P33261 whole entry): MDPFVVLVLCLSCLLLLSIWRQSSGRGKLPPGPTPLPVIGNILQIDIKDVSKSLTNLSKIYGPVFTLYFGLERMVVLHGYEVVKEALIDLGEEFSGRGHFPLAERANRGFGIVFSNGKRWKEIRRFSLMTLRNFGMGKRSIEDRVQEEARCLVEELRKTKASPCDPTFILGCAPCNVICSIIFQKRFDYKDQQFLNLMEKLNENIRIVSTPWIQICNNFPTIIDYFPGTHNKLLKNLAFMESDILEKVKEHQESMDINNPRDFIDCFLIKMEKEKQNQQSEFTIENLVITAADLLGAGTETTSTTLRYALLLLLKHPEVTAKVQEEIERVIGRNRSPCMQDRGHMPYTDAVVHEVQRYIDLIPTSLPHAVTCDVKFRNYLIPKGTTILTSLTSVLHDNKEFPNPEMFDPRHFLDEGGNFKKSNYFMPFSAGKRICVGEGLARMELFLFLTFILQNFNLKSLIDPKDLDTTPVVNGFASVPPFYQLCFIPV

[4] = biological target: Luciferin 4-monooxygenase (Photinus pyralis, UniProt P08659); experiment: firefly luciferase enzyme inhibitors, dose response, biochemical, luminescence (AID 1891)
Sequence of Luciferin 4-monooxygenase (P08659 whole entry): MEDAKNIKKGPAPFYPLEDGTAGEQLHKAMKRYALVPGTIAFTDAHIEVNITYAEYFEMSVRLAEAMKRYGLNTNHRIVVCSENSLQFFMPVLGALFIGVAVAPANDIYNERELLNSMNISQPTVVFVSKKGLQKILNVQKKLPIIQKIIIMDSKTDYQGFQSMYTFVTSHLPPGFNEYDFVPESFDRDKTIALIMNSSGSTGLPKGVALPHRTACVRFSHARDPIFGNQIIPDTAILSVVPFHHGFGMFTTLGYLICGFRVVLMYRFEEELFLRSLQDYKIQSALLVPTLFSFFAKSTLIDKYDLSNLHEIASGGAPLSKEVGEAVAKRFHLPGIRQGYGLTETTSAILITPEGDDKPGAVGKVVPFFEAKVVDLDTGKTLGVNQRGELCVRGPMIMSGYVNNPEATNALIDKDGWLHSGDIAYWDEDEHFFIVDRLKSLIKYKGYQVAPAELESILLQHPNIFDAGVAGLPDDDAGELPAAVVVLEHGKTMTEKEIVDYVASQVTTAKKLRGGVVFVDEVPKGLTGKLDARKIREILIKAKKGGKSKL

[5] = Luminescence Cell-Based Dose Confirmation HTS to Identify Inhibitors of Platelet Dense Granule Release. [Related pubchem assays: 1663 (Primary HTS), 1678 (Summary of Project)]; assay type: functional
[6] = Luminescence Cell-Based Dose Retest to Confirm Inhibitors of Cancer Stem Cells. [Related pubchem assays (depositor defined):AID2717, AID2721]; assay type: functional; details: Homo sapiens
Cytochrome P450 3A4 = Cytochrome P450 3A4 (Homo sapiens, UniProt P08684);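 note: CYP3A4 tested as one member of a cytochrome P450 panel screen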
Sequence of Cytochrome P450 3A4 (P08684 whole entry): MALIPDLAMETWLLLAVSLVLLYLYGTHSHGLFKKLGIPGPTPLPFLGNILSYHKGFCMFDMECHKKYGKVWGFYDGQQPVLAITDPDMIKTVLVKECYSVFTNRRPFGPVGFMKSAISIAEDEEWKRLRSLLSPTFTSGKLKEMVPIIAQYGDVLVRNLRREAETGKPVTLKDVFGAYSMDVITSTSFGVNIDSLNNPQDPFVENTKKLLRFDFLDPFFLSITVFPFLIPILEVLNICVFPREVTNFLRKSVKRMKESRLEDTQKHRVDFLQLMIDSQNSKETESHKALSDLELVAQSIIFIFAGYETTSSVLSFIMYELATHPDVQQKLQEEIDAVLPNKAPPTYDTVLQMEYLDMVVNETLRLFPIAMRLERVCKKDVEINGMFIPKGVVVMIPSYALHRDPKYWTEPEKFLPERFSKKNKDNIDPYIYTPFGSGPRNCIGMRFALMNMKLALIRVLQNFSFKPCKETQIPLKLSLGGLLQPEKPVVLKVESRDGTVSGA

Cytochrome P450 1A2 = biological target: T2, Cytochrome P450 1A2 (Homo sapiens, UniProt P05177);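 note: PubChem cytochrome P450 panel assay, CYP1A2 panel member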
T2 sequence (P05177 whole entry): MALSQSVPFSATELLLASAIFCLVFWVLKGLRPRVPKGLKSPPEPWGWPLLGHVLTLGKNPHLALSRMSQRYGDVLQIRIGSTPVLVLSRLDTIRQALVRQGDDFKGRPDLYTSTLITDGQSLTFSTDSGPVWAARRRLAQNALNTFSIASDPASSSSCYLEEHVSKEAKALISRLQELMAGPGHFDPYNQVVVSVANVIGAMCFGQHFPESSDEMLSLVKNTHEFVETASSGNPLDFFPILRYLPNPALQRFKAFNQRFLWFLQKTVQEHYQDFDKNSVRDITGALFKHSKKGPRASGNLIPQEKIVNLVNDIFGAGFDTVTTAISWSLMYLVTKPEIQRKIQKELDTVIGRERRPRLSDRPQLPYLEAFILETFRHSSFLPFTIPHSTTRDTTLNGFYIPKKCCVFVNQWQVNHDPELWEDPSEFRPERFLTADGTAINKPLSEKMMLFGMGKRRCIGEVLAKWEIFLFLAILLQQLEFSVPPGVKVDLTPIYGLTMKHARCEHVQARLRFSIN

[7] = biological target: T3, Heat shock factor protein 1 (Mus musculus, UniProt P38532); experiment: HSF1 potentiators in luciferase reporter cells, confirmation, cell-based, NIH3T3, luminescence, dose retest (AID 435004); assay type: functional;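 note: stress induced by proteasome inhibitor MG132 added 30 min after compound; luciferase reporter driven by HSF1 response element in NIH3T3 cells; actives raise luminescence as potentiators of the MG132 stress response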
T3 sequence (P38532 whole entry): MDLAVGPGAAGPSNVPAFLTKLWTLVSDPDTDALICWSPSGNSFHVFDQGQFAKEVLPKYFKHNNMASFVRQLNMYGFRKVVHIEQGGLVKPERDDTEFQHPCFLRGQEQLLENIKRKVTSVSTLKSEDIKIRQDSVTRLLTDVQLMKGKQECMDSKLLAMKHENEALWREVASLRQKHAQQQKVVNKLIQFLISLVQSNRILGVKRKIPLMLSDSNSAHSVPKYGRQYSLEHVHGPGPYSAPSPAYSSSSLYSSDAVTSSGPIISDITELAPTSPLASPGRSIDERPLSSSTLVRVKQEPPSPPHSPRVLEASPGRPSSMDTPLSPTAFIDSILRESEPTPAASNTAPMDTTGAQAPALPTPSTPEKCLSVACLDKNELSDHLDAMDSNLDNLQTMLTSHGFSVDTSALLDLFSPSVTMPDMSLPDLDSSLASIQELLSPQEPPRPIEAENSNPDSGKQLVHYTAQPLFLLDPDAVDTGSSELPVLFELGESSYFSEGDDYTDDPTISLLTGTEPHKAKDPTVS

[8] = growth suppression of PTEN-null colon cells, dose response, cell-based, HCT116 PTEN knockout (AID 1047); assay type: functional;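 note: HCT116 colon tumor cells with PTEN knocked out; cells exposed to compound for 60 hours before readout; potency for loss of cell viability measured by luminescence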
[9] = growth suppression of beta-catenin-knockout colon cells, dose response, cell-based, HCT116, human colon tumor (AID 1045); assay type: functional;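 note: HCT116 colon tumor cells with beta catenin knocked out; cells exposed to compound for 60 hours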

In the case of `CC1(C)CC(=O)C2=C(C1)N=C1c3ccccc3C(=O)C1C2c1ccc(Cl)cc1` (stereo not drawn), the EC50 (Streptokinase A) is reported as 14.8 µM (active), the EC50 [1] is reported as 6.07 µM (active) and the EC50 (Streptococcus) is reported as > 150 µM (not active).
With `C=CCn1cc(/C=C/c2cc[n+](C)cc2)c2ccccc21` the AC50 (INS1) was 4.75 µM (active), the EC50 [2] was > 60 µM (not active) and the EC50 [3] was 0.323 µM (active).
In the case of `C/C(=N\O)c1cccc[n+]1Cc1ccccc1`, the AC50 (Cytochrome P450 2D6) is reported as 3.98 µM (inconclusive) and the AC50 (Cytochrome P450 2C19) is reported as 0.1 µM (inconclusive).
For `CC(Oc1cccc(Cl)c1)C(=O)Nc1ccccc1N1CCCC1` (stereo not drawn), the EC50 [4] was > 112 µM (not active) and the EC50 [5] was > 112 µM (not active).
In the case of `Cc1noc(C)c1S(=O)(=O)N(CCc1ccccc1)Cc1ccccc1`, the EC50 (Streptokinase A) is reported as 21.7 µM (active), the EC50 [1] is reported as 68.6 µM (active) and the EC50 (Streptococcus) is reported as > 150 µM (not active).
With `COc1ccc(NC(=O)c2cccc(OC(F)F)c2)cc1Cl` the EC50 [4] was 17.3 µM (active) and the EC50 [5] was 18.2 µM (active).
For `COCCNc1ncnc2ccc(-c3cccc(OC)c3)cc12`, the AC50 (Cytochrome P450 2D6) was 39.8 µM (inconclusive) and the AC50 (Cytochrome P450 2C19) was 2.51 µM (inconclusive).
With `CC(C)OCCCN1CN(S(=O)(=O)c2cccs2)c2nc3ccccc3nc21` the EC50 [4] was > 112 µM (not active) and the EC50 [5] was > 112 µM (not active).
In the case of `CCCCCCSc1ccc([C@H]2N[C@@](C)(C(=O)OC)[C@H]3C(=O)N(CC)C(=O)[C@@H]23)cc1`, the AC50 [6] is reported as 33.7 µM (active).
For `CCCc1cc2c(-c3ccccc3)cc(=O)oc2cc1OCc1ccc(C(=O)O)o1`, the EC50 (Streptokinase A) was 13.8 µM (active), the EC50 [1] was 8.37 µM (active) and the EC50 (Streptococcus) was > 150 µM (not active).
In the case of `CN(C)c1nc(OCCNC(=O)Nc2ccc(Cl)cc2)nc(N(C)C)n1`, the EC50 [4] is reported as 21.3 µM (active) and the EC50 [5] is reported as > 112 µM (not active).
In the case of `C[C@@H]1CC[C@H]2C(=O)N3[C@@H](CC[C@@H](C)[C@@H]3c3ccc(Br)cc3)C(=O)N2[C@H]1c1ccc(Br)cc1`, the AC50 [6] is reported as 3.04 µM (active).
For `Cc1nnc(SCC(=O)Nc2ccc(Br)cn2)nc1O`, the EC50 [4] was > 112 µM (not active) and the EC50 [5] was > 112 µM (not active).
With `COC(=O)C1(Cc2ccccc2)C=C2C(=C(C)C(=O)C2C)CN1` (stereo not drawn) the AC50 (Cytochrome P450 3A4) was 15.8 µM (inconclusive), the AC50 (Cytochrome P450 2D6) was 15.8 µM (inconclusive) and the AC50 (Cytochrome P450 1A2) was 10 µM (inconclusive). For the same compound, the AC50 (Cytochrome P450 2C19) was 39.8 µM (inconclusive).
In the case of `COc1ccc2[nH]cc(CCNc3nc(-c4ccccc4CN(C)C)nc4ccccc34)c2c1`, the AC50 (Cytochrome P450 3A4) is reported as 2 µM (inconclusive), the AC50 (Cytochrome P450 2D6) is reported as 31.6 µM (inconclusive) and the AC50 (Cytochrome P450 1A2) is reported as 25.1 µM (inconclusive).
With `Cc1ccccc1SCC(=O)OCC(=O)N(C)c1c(N)n(Cc2ccccc2)c(=O)[nH]c1=O` the EC50 [4] was > 112 µM (not active) and the EC50 [5] was > 112 µM (not active).
For `O=C1/C(=C/c2ccncc2)Oc2cc(OS(=O)(=O)c3ccccc3)ccc21`, the AC50 [6] was 3.32 µM (active).
For `Cc1ccc(-c2[nH]c3ccccc3c2C(C[N+](=O)[O-])c2ccco2)cc1` (stereo not drawn), the EC50 [7] was > 260 µM (inactive), the EC50 [4] was > 112 µM (not active) and the EC50 [5] was > 112 µM (not active).
In the case of `Cc1ccc(Nc2cc(C)nn2-c2nc(C)cc(C)n2)cc1`, the EC50 (Streptokinase A) is reported as > 150 µM (not active), the EC50 [1] is reported as 6.89 µM (active) and the EC50 (Streptococcus) is reported as 18.2 µM (active).
In the case of `CC(C)N1CCN(Cc2ccc(OC3CCCC3)cc2)CC1CCO` (stereo not drawn), the AC50 [6] is reported as 3.58 µM (active).
With `O=c1c2sc3nc(N4CCOCC4)c4c(c3c2ncn1-c1ccccc1)CCCC4` the EC50 [4] was > 112 µM (not active) and the EC50 [5] was > 112 µM (not active).
With `Cc1cccc(NC(=O)c2[nH]cnc2C(=O)NC2CCN(C(=O)OC(C)(C)C)CC2)c1` the AC50 [6] was 5.39 µM (active).
With `O=C(NCc1nnc(SCC(=O)N2CCOCC2)o1)c1c(F)cccc1F` the EC50 (Streptokinase A) was > 150 µM (not active), the EC50 [1] was > 150 µM (not active) and the EC50 (Streptococcus) was > 150 µM (not active).
For `Cc1nc2sccn2c(=O)c1S(=O)(=O)NCC(C)c1ccccc1` (stereo not drawn), the EC50 [4] was > 112 µM (not active) and the EC50 [5] was > 112 µM (not active).
With `Cc1ccc(C)n1-c1ccc(C(=O)Nc2ccccc2)cc1` the AC50 (INS1) was > 260 µM (inactive).
For `O=C(CSc1ccccc1)Nc1nc2ccccc2[nH]1`, the EC50 [4] was > 112 µM (not active) and the EC50 [5] was > 112 µM (not active).
With `CCN(CC(=O)NC1CCS(=O)(=O)C1)S(=O)(=O)c1ccccc1` (stereo not drawn) the EC50 [4] was > 112 µM (not active) and the EC50 [5] was > 112 µM (not active).
For `Nc1c(C(=O)OCc2ccccc2)c2nc3ccccc3nc2n1Cc1cccs1`, the EC50 (Streptokinase A) was 18.5 µM (active), the EC50 [1] was 10.9 µM (active) and the EC50 (Streptococcus) was 11.8 µM (active).
For `Cn1c2ccccc2c(=O)c2c(=O)n(C3CCCCC3)c(-c3cccs3)nc21`, the EC50 (Streptokinase A) was > 150 µM (not active), the EC50 [1] was 10.6 µM (active) and the EC50 [8] was 7.92 µM (active). For the same compound, the EC50 (Streptococcus) was 39.2 µM (active) and the EC50 [9] was 8.9 µM (active).
For `COc1ccc(NC(=S)N2CCc3ccccc32)cc1OC`, the EC50 [4] was > 112 µM (not active) and the EC50 [5] was > 112 µM (not active).
With `CCOC(=O)Nc1ccc(Cc2ccncc2)cc1` the AC50 [6] was 25.3 µM (active).
With `COc1ccc(NC(=O)c2ccc(COc3ccccc3Br)o2)c(OC)c1` the AC50 [6] was 2.2 µM (active).
In the case of `Cc1ccc(NC(=O)C(C)Sc2nnc(C)n2C2CC2)cc1S(=O)(=O)N1CCOCC1` (stereo not drawn), the AC50 (INS1) is reported as > 260 µM (inconclusive).
For `CN(C)C=O.O=C(c1cc(-c2ccccc2Cl)nc2ccccc12)N1CCN(c2ccccn2)CC1`, the AC50 (INS1) was 3.9 µM (active).
In the case of `CCN(CC)c1nc(Nc2ccc([N+](=O)[O-])cc2)nc(N(CC)CC)n1`, the EC50 (Streptokinase A) is reported as > 150 µM (not active), the EC50 [1] is reported as 6.64 µM (active) and the EC50 (Streptococcus) is reported as 15.7 µM (active).
With `COc1ccc(S(=O)(=O)N/N=C(/C)c2cccc(NC(=O)c3ccccc3Cl)c2)cc1` the AC50 (Cytochrome P450 2D6) was 28.2 µM (inconclusive), the AC50 (Cytochrome P450 1A2) was 14.1 µM (inconclusive) and the AC50 (Cytochrome P450 2C19) was 0.398 µM (inconclusive).
